# Data reported in paper PMC7026480, “Discovery of Multitarget-Directed Ligands Against Influenza A Virus From Compound Yizhihao Through a Predictive System for Compound-Protein Interactions” (Frontiers in Cellular and Infection Microbiology, 2020).
# Read-outs that look alike come from different tables or passages of the source.
# How the values were obtained:
# [1] = target: neuraminidase (NA) of A/PR/8/34 (H1N1) (Influenza A virus, UniProt P03468); test: biochemical
# [2] = test system: TNF-α; assay type: cell-based, human; as to TNF-α expression in cell culture supernatant in comparison with the model group: test concentration or dose not given here
# [3] = test system: A/Puerto Rico/8/34 (wild-type H1N1); test: microbe, parasite or virus in culture; assay type: cell-based; conditions: Influenza A virus
# [4] = test system: A/Minfang/151/2000 (wild-type H3N2); test: microbe, parasite or virus in culture; assay type: cell-based; conditions: Influenza A virus, H3N2, MDCK
# [5] = H1N1 / PR/8, MDCK, read-out: IC50, CPE reduction, A/PR/8/34 (H1N1), Drug administration after virus inoculation
# [6] = H1N1 / PR/8, MDCK, read-out: IC50, CPE reduction, A/PR/8/34 (H1N1), Pre-incubation of virus and drug
# [7] = H1N1 / PR/8, MDCK, read-out: IC50, CPE reduction, A/PR/8/34 (H1N1), Simultaneous action of virus and drug
# [8] = H1N1 / PR/8, MDCK, read-out: IC50, CPE reduction, A/PR/8/34 (H1N1), Virus inoculation after drug administration
# [9] = read-out: IC50, CPE reduction, A/Minfang/151/2000 (H3N2), Drug administration after virus inoculation
# [10] = read-out: IC50, CPE reduction, A/Minfang/151/2000 (H3N2), Pre-incubation of virus and drug
# [11] = read-out: IC50, CPE reduction, A/Minfang/151/2000 (H3N2), Simultaneous action of virus and drug
# [12] = read-out: IC50, CPE reduction, A/Minfang/151/2000 (H3N2), Virus inoculation after drug administration
# [13] = IC50, NA inhibition test, A/PR/8/34 (H1N1)
# [14] = H1N1, MDCK, read-out: IC50, CPE reduction, H1N1 wild-type, in the four modes of action tested
# [15] = read-out: IC50, CPE reduction, H3N2 wild-type, in the four modes of action tested
# neuraminidase (NA) of A/PR/8/34 (H1N1), sequence (P03468 whole entry, looked up): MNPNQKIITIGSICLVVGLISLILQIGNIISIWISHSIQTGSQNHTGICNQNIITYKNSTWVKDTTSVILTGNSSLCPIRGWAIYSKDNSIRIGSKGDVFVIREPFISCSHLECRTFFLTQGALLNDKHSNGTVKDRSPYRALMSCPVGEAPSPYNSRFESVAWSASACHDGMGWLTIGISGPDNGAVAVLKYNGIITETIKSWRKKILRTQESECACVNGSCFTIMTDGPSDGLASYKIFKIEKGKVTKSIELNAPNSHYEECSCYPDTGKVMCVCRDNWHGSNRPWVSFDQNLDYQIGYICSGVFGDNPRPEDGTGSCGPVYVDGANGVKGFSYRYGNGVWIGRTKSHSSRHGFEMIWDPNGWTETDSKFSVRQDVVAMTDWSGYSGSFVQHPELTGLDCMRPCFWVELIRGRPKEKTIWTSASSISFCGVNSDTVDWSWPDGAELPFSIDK
Compound,TNF-α expression in cell culture supernatant in comparison with the model group [2],"IC50 [3, 5] [µM]","IC50 [3, 6] [µM]","IC50 [3, 7] [µM]","IC50 [3, 8] [µM]","IC50 [4, 9] [µM]","IC50 [4, 10] [µM]","IC50 [4, 11] [µM]","IC50 [4, 12] [µM]",other results
C=C(C(=O)O)[C@H]1CC[C@H](C)[C@@H]2CC(=O)C(C)=C2C1 (stereo in doubt) [Rupestonic acid],significantly less TNF-α,,,,,,,,,"IC50 ([1]; read-out: IC50, NA inhibition test, A/PR/8/34 (H1N1)): > 100 µM"
C=CCC(=NOS(=O)(=O)O)S[C@@H]1O[C@H](CO)[C@@H](O)[C@H](O)[C@H]1O (stereo in doubt) [sinigrin],significantly less TNF-α,,,,,,,,,
COc1ccc(-c2cc(=O)c3c(O)cc(O)cc3o2)cc1 [Acacetin],,62 ± 5.91,77.4 ± 25.7,> 100,> 100,> 100,12.5 ± 5.46,20.5 ± 0.86,72.5 ± 11.7,
O=c1cc(-c2ccc(O)cc2)oc2cc(O)cc(O)c12 [Apigenin],,> 100,16.7 ± 1.77,9.06 ± 0.41,> 100,> 100,9.28 ± 2.03,15.8 ± 1,> 100,
O=C(/C=C/c1ccc(O)c(O)c1)O[C@@H]1C[C@](O)(C(=O)O)C[C@@H](O)[C@H]1O [Chlorogenic acid],significantly less TNF-α,,,,,,,,,"IC50 [1, 13]: 64.6 ± 6.97 µM"
Cc1cc(O)c2c(c1)C(=O)c1cc(O)cc(O)c1C2=O [Emodin],,> 100,55.9 ± 9.8,6.53 ± 0.29,> 100,> 100,18.2 ± 1.02,55.9 ± 6,> 100,
C=C[C@@H]1CNC(=S)O1 [Epigoitrin],significantly less TNF-α,,,,,,,,,IC50 [1]: > 100 µM
O=C1Nc2ccccc2/C1=C1/Nc2ccccc2C1=O [Indirubin],,> 100,> 100,> 100,> 100,> 100,> 100,> 100,52.6 ± 27.4,
O=c1cc(-c2ccc(O)c(O)c2)oc2cc(O)cc(O)c12 [Luteolin],significantly less TNF-α,> 100,4.53 ± 0.92,7.08 ± 0.3,> 100,> 100,44.7 ± 20,> 100,> 100,effect on TNF-α compared with positive drugs [2]: greater effect on TNF-α than positive drugs
O=c1cc(-c2ccc(O)c(O)c2)oc2c([C@@H]3O[C@H](CO)[C@@H](O)[C@H](O)[C@H]3O)c(O)cc(O)c12 [Orientin],significantly less TNF-α,,,,,,,,,"IC50 [1, 13]: 53.7 ± 9.98 µM"
"CCOC(=O)C1=C[C@@H](OC(CC)CC)[C@H](NC(C)=O)[C@@H](N)C1 [Oseltamivir, oseltamivir phosphate, reference compound]",,83.4 ± 15.6,74.9 ± 20.7,4.45 ± 0.24,11.4 ± 7.44,77.9 ± 22.1,6.25 ± 2.6,8.47 ± 1.73,54.5 ± 14.2,"IC50 [3, 14]: < 100 µM; IC50 [4, 15]: < 100 µM"
O=c1c(O)c(-c2ccc(O)c(O)c2)oc2cc(O)cc(O)c12 [Quercetin],,> 100,8.59 ± 1.34,5.41 ± 0.14,> 100,> 100,9.99 ± 2.84,18.3 ± 3.52,> 100,
"NC(=O)c1ncn([C@@H]2O[C@H](CO)[C@@H](O)[C@H]2O)n1 [Ribavirin, ribavirin, reference compound]",,16.1 ± 1.47,10.4 ± 2.19,16.4 ± 2.95,47.5 ± 7.94,22.5 ± 6.16,9.18 ± 0.99,21.7 ± 0.97,62.5 ± 16.2,"IC50 [3, 14]: < 100 µM; IC50 [4, 15]: < 100 µM"
O=C1c2ccccc2-n2c1nc1ccccc1c2=O [Tryptanthrin],"except tryptanthrin, were associated with significantly less TNF-α",> 100,72 ± 23.6,> 100,> 100,> 100,17.7 ± 1.74,31.8 ± 11.6,76.3 ± 3.4,
O=C(/C=C/c1ccc(O)cc1)c1ccc(O)cc1O [isoliquiritigenin],significantly less TNF-α,,,,,,,,,effect on TNF-α compared with positive drugs [2]: greater effect on TNF-α than positive drugs
COc1ccc(-c2cc(=O)c3c(O)cc(O[C@@H]4O[C@H](CO[C@@H]5O[C@@H](C)[C@H](O)[C@@H](O)[C@H]5O)[C@@H](O)[C@H](O)[C@H]4O)cc3o2)cc1 [linarin],significantly less TNF-α,,,,,,,,,
COc1ccc(-c2cc(=O)c3c(OC)c(OC)c(OC)cc3o2)cc1OC [sinensetin],significantly less TNF-α,,,,,,,,,
cedar acid,significantly less TNF-α,,,,,,,,,
